Experimental data from patent US11648315B2, “Silvestrol antibody-drug conjugates and methods of use” (Genentech, Inc., priority 2016, dated 2023).

Columns and labels:
Assay type in all cases: cell-based
KPL-4 cells = test: In vitro cell viability (CellTiter-Glo), KPL-4 cells; details: Homo sapiens, KPL4; KPL-4 cell line; read-out: IC50 (nM) free drug
Protocol: (§1) Generally, the cytotoxic or cytostatic activity of an antibody-drug conjugate (ADC) is measured by: exposing mammalian cells having receptor proteins, e.g. HER2, to the antibody of the ADC in a cell culture medium; culturing the cells for a period from about 6 hours to about 5 days; and measuring cell viability. Cell-based in vitro assays were used to measure viability (proliferation), cytotoxicity, and induction of apoptosis (caspase activation) of the ADC of the invention.
(§2) The CellTiter-Glo® Luminescent Cell Viability Assay is a commercially available (Promega Corp., Madison, Wis.), homogeneous assay method based on the recombinant expression of Coleoptera luciferase (U.S. Pat. Nos. 5,583,024; 5,674,713; 5,700,670). This cell proliferation assay determines the number of viable cells in culture based on quantitation of the ATP present, an indicator of metabolically active cells (Crouch et al (1993) J. Immunol. Meth. 160:81-88; U.S. Pat. No. 6,602,677). […]
(§3) Inhibition of cell proliferation in vitro may be assayed using the CellTiter-Glo™ Luminescent Cell Viability Assay, an embodiment of which is detailed as Example 6. Such assay determines the number of viable cells in culture based on quantitation of ATP present, which is an indication of metabolically active cells (Crouch et al. (1993) J. Immunol. Meth. 160:81-88; U.S. Pat. No. 6,602,677). […]

HCC1937 = test: In vitro efficacy of free drug silvestrol compounds, HCC1937; details: Homo sapiens; HCC1937 cell line
Excerpt: as §2, with “6,602,677). The CellTiter-Glo® Assay was conducted in 96 well format, making it amenable to automated high-throughput screening (HTS) (Cree et al (1995) AntiCancer Drugs 6:398-404). The homogeneous assay procedure involves adding the single reagent (CellTiter-Glo® Reagent) directly to cells cultured in serum-supplemented medium.” for “6,602,677).”
(§4) Inhibition of cell proliferation in vitro may be assayed using the CellTiter-Glo™ Luminescent Cell Viability Assay, an embodiment of which is detailed as Example 6. Such assay determines the number of viable cells in culture based on quantitation of ATP present, which is an indication of metabolically active cells (Crouch et al. (1993) J. Immunol. Meth. 160:81-88; U.S. Pat. No. 6,602,677). […] Data can be recorded by luminometer or CCD camera imaging device. The luminescence output is expressed as relative light units (RLU).

NCI-H1781 = test: In vitro efficacy of free drug silvestrol compounds, NCI-H1781; details: NCI-H1781 cell line
Excerpt: as §2, with “6,602,677). The CellTiter-Glo® Assay was conducted in 96 well format, making it amenable to automated high-throughput screening (HTS) (Cree et al (1995) AntiCancer Drugs 6:398-404). The homogeneous assay procedure involves adding the single reagent (CellTiter-Glo® Reagent) directly to cells cultured in serum-supplemented medium.” for “6,602,677).”
as §4

cell lines of Table 7 = test: In vitro efficacy of free drug silvestrol compounds, summary over cell lines of Table 7; details: summary of Table 7
Excerpt: (§5) The CellTiter-Glo® Luminescent Cell Viability Assay is a commercially available (Promega Corp., Madison, Wis.), homogeneous assay method based on the recombinant expression of Coleoptera luciferase (U.S. Pat. Nos. 5,583,024; 5,674,713; 5,700,670). This cell proliferation assay determines the number of viable cells in culture based on quantitation of the ATP present, an indicator of metabolically active cells (Crouch et al (1993) J. Immunol. Meth. 160:81-88; U.S. Pat. No. 6,602,677). The CellTiter-Glo® Assay was conducted in 96 well format, making it amenable to automated high-throughput screening (HTS) (Cree et al (1995) AntiCancer Drugs 6:398-404). The homogeneous assay procedure involves adding the single reagent (CellTiter-Glo® Reagent) directly to cells cultured in serum-supplemented medium. Cell washing, removal of medium and multiple pipetting steps are not required. The system detects as few as 15 cells/well in a 384-well format in 10 minutes after adding reagent and mixing. The cells may be treated continuously with ADC, or they may be treated and separated from ADC.
Inhibition of cell proliferation in vitro may be assayed using the CellTiter-Glo™ Luminescent Cell Viability Assay, an embodiment of which is detailed as Example 6. Such assay determines the number of viable cells in culture based on quantitation of ATP present, which is an indication of metabolically active cells (Crouch et al. (1993) J. Immunol. Meth. 160:81-88; U.S. Pat. No. 6,602,677). The assay may be conducted in 96- or 384-well format, making it amenable to automated high-throughput screening (HTS). See Cree et al. (1995) AntiCancer Drugs 6:398-404. The assay procedure involves adding a single reagent (CellTiter-Glo® Reagent) directly to cultured cells. […] The luminescent signal is proportional to the amount of ATP present, which is directly proportional to the number of viable cells present in culture. Data can be recorded by luminometer or CCD camera imaging device. The luminescence output is expressed as relative light units (RLU). […]

MES-SA = test: In vitro efficacy of free drug silvestrol compounds, MES-SA; details: Homo sapiens; MES-SA cell line
Excerpt: as §5, with “Cell washing, removal of medium and multiple pipetting steps are not required. The system detects as few as 15 cells/well in a 384-well format in 10 minutes after adding reagent and mixing. The cells may be treated continuously with ADC, or they may be treated and separated from ADC.” left out
as §4

MES-SA/Dx5 = test: In vitro efficacy of free drug silvestrol compounds, MES-SA/Dx5; details: Homo sapiens; MES-SA/Dx5 cell line
Excerpt: as §5, with “Cell washing, removal of medium and multiple pipetting steps are not required. The system detects as few as 15 cells/well in a 384-well format in 10 minutes after adding reagent and mixing. The cells may be treated continuously with ADC, or they may be treated and separated from ADC.” left out
as §4

SW 900 = test: In vitro efficacy of free drug silvestrol compounds, SW 900; details: Homo sapiens, SW900; SW 900 cell line
Excerpt: as §5, with “Cell washing, removal of medium and multiple pipetting steps are not required. The system detects as few as 15 cells/well in a 384-well format in 10 minutes after adding reagent and mixing. The cells may be treated continuously with ADC, or they may be treated and separated from ADC.” left out
as §4

T-47D = test: In vitro efficacy of free drug silvestrol compounds, T-47D; details: Homo sapiens, T47D; T-47D cell line
Excerpt: as §5, with “Cell washing, removal of medium and multiple pipetting steps are not required. The system detects as few as 15 cells/well in a 384-well format in 10 minutes after adding reagent and mixing. The cells may be treated continuously with ADC, or they may be treated and separated from ADC.” left out
as §4

SK-BR-3 cells = test: In vitro cell viability (CellTiter-Glo), SK-BR-3 cells; details: Homo sapiens, read-out: IC50 free drug
Protocol: as §1, §2, §3

BJAB = test: In vitro efficacy of free drug silvestrol compounds, BJAB; details: Homo sapiens; BJAB cell line
Excerpt: as §5, with “Cell washing, removal of medium and multiple pipetting steps are not required. The system detects as few as 15 cells/well in a 384-well format in 10 minutes after adding reagent and mixing. The cells may be treated continuously with ADC, or they may be treated and separated from ADC.” left out
as §4

HCC1569 X2 = test: In vitro efficacy of free drug silvestrol compounds, HCC1569 X2; details: Homo sapiens; HCC1569 X2 cell line
Excerpt: as §5, with “Cell washing, removal of medium and multiple pipetting steps are not required. The system detects as few as 15 cells/well in a 384-well format in 10 minutes after adding reagent and mixing. The cells may be treated continuously with ADC, or they may be treated and separated from ADC.” left out
as §4, with “(RLU). […]” for “(RLU).”

Structure (SMILES)	IC50 (KPL-4 cells)	IC50 (HCC1937)	IC50 (NCI-H1781)	IC50s of free drug, in words (cell lines of Table 7)	activity of free drug in vitro (cell lines of Table 7)	IC50 (MES-SA)	IC50 (MES-SA/Dx5)	IC50 (SW 900)	IC50 (T-47D)	IC50 (SK-BR-3 cells)	IC50 (BJAB)	IC50 (HCC1569 X2)
COC(=O)[C@H]1[C@@H](O)[C@@]2(O)c3c(OC)cc(O[C@@H]4O[C@@H](CCN)CO[C@H]4OC)cc3O[C@@]2(c2ccc(OC)cc2)[C@@H]1c1ccccc1 [amino silvestrol analog, (1R,2R,3S,3aR,8bS)-methyl 6-(((2S,3R,6S)-6-(2-aminoethyl)-3-methoxy-1,4-dioxan-2-yl)oxy)-1,8b-dihydroxy-8-methoxy-3a-(4-methoxyphenyl)-3-phenyl-2,3,3a,8b-tetrahydro-1H-cyclopenta[b]benzofuran-2-carboxylate]	1.2 nM	0.66 nM	1 nM	pM or low nM	active	1.1 nM	> 100 nM	2.9 nM	1 nM	1.6 nM	0.81 nM	1.3 nM
COc1ccc([C@@]23Oc4cc(O[C@@H]5O[C@@H]([C@H](O)CO)CO[C@H]5OC)cc(OC)c4[C@]2(O)[C@H](O)[C@H](C(=O)NCCN)[C@H]3c2ccccc2)cc1 [silvestrol amine, (1R,2R,3S,3aR,8bS)-N-(2-aminoethyl)-6-(((2S,3R,6R)-6-((R)-1,2-dihydroxyethyl)-3-methoxy-1,4-dioxan-2-yl)oxy)-1,8b-dihydroxy-8-methoxy-3a-(4-methoxyphenyl)-3-phenyl-2,3,3a,8b-tetrahydro-1H-cyclopenta[b]benzofuran-2-carboxamide]	> 200 nM	> 200 nM	> 200 nM		inactive	> 100 nM	> 200 nM	> 200 nM	> 200 nM		> 200 nM	> 200 nM
